In brackets after ≈: the same amount, converted by molar mass.
Legend:
Format in all cases: functional
P388 = test: Cytotoxicity against mouse P388 cells after 3 days by MTT assay; settings: P388, 72 h, read-out: ED50 (the source's name)
HT-29 = test: Cytotoxicity against human HT-29 cells after 6 days by MTT assay; settings: HT-29, 144 h, read-out: ED50 (the source's name)
KB = test: Cytotoxicity against human KB cells after 3 days by MTT assay; settings: 72 h, read-out: ED50 (the source's name)
A549 = test: Cytotoxicity against human A549 cells after 6 days by MTT assay; settings: A549, 144 h, read-out: ED50 (the source's name)

| Compound | EC50 (P388) [µg/mL] | EC50 (HT-29) [µg/mL] | EC50 (KB) [µg/mL] | EC50 (A549) [µg/mL] |
| --- | --- | --- | --- | --- |
| C=C(CC[C@@H](C)[C@H]1CC[C@H]2[C@@H]3C(=O)C=C4C[C@@H](O)CC[C@]4(CO)[C@H]3CC[C@]12C)C(C)C | 0.4 (≈ 0.933 µM) | 3.34 (≈ 7.79 µM) | > 50 | 4.09 (≈ 9.54 µM) |
| C=C(CC[C@@H](C)[C@H]1CC[C@H]2[C@@H]3C[C@@H](O)[C@@]4(O)C[C@@H](O)CC[C@]4(CO)[C@H]3CC[C@]12C)C(C)C | 0.34 (≈ 0.758 µM) | 0.93 (≈ 2.07 µM) | 0.39 (≈ 0.869 µM) | 0.81 (≈ 1.81 µM) |
| C=C(CC[C@@H](C)[C@H]1CC[C@H]2[C@@H]3CC=C4C[C@@H](O)CC[C@]4(CO)[C@H]3CC[C@]12C)C(C)C | 0.45 (≈ 1.09 µM) | 1.31 (≈ 3.16 µM) | 1.1 (≈ 2.65 µM) | 1.76 (≈ 4.24 µM) |
| C=C(CC[C@@H](C)[C@H]1C[C@@H](O)[C@H]2[C@@H]3CC=C4C[C@@H](O)CC[C@]4(CO)[C@H]3CC[C@@]21C)C(C)C | 0.07 (≈ 0.163 µM) | 0.17 (≈ 0.395 µM) | 0.6 (≈ 1.39 µM) | 0.41 (≈ 0.952 µM) |
| C=C(CC[C@@H](C)[C@H]1CC[C@H]2[C@@H]3[C@@H](OC(C)=O)C=C4C[C@@H](O)CC[C@]4(CO)[C@H]3CC[C@]12C)C(C)C | 0.42 (≈ 0.888 µM) | 0.87 (≈ 1.84 µM) | 0.38 (≈ 0.804 µM) | 0.81 (≈ 1.71 µM) |
| C=C(CC[C@@H](C)[C@H]1CC[C@H]2[C@@H]3[C@@H](O)C=C4C[C@@H](O)CC[C@]4(CO)[C@H]3CC[C@]12C)C(C)C | 0.24 (≈ 0.557 µM) | 0.72 (≈ 1.67 µM) | 0.58 (≈ 1.35 µM) | 0.69 (≈ 1.6 µM) |
